The structures appear in SMILES notation. Where a name gives a salt, the structure may show the parent alone.

The assay deals with T1, KRAS-G12D and SOS1 (Homo sapiens, UniProt P01116, G12D).
T1 construct: purchased
T1 sequence (P01116 1-188 isoform P01116-2 G12D): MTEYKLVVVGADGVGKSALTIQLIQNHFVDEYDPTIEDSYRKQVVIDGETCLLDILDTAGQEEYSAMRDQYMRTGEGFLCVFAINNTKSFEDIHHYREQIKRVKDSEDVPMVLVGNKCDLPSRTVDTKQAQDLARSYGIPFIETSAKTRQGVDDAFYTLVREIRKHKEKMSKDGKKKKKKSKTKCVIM
Briefly: Inhibition of KRAS-G12D/SOS1 binding (Cisbio binding kit, 665/615 ratio), Effect Embodiment A. Conditions: read-out: GTP-KRAS-G12D:SOS1 IC50. As to the method: Similarly, the first dilution point of the compound to be tested was its storage solution, and the solution was 3-fold diluted, with 11+0 points of dilution. Echo was used to transfer 0.2 μL gradient diluted solution of the compounds into a 384-well plate, with 2 duplicated wells for each compound, and the final concentration of DMSO was 1%. The solution was centrifuged for 1 min at 1000 rpm/min.
IC50 of the compounds was fitted by Graphpad Prism 8 nonlinear regression equation: […]
The IC50 (half inhibitory concentration) of the compound was obtained by using the following nonlinear fitting formula: […]
As usually defined, the IC50 is the concentration that inhibits the measured activity by half. With `CNCCN(C)c1nc(N2CC(N(C)C)C2)nc2c(F)c(-c3cc(O)cc4ccccc34)c(Cl)cc12` (single isomer, unassigned) [Compound 16b, (S or R)-4-(6-chloro-2-(3-(dimethylamino)azetidin-1-yl)-8-fluoro-4-(methyl(2-(methylamino)ethyl)amino)quinazolin-7-yl)naphthalen-2-ol], the 50% inhibitory concentration (IC50) stood at 83.4 µM.

As to `CN(C)CCN(C)c1nc(N2CC(N(C)C)C2)nc2c(F)c(-c3cc(O)cc4ccccc34)c(Cl)cc12` (single isomer, unassigned) [Compound 17a, (R or S)-4-(6-chloro-2-(3-(dimethylamino)azetidin-1-yl)-4-((2-(dimethylamino)ethyl)(methyl)amino)-8-fluoro-quinazolin-7-yl)naphthalen-2-ol], the IC50 stood at 5.81 µM.

On to `CN(C)C1CN(c2nc(NCCO)c3cc(Cl)c(-c4cc(O)cc5ccccc45)c(F)c3n2)C1` (single isomer, unassigned) [Compound 18b, (S or R)-4-(6-chloro-2-(3-(dimethylamino)azetidin-1-yl)-8-fluoro-4-((2-hydroxyethyl)amino)-quinazolin-7-yl)naphthalen-2-ol], for which the 50% inhibitory concentration (IC50) amounted to 2.36 µM.

In the case of `CN(C)C1CN(c2nc(C3CNC3)c3cc(Cl)c(-c4cc(O)cc5ccccc45)c(F)c3n2)C1` (single isomer, unassigned) [Compound 21a, (S or R)-4-(4-(azetidin-3-yl)-6-chloro-2-(3-(dimethylamino)azetidin-1-yl)-8-fluoroquinazolin-7-yl)naphthalen-2-ol bistrifluoroacetate], the IC50 turned out to be 1.28 µM.

With `CN(C)C1CN(c2nc(C3(C(N)=O)CNC3)c3cc(Cl)c(-c4cc(O)cc5ccccc45)c(F)c3n2)C1` (single isomer, unassigned) [Compound 22b, (R or S)-3-(6-chloro-2-(3-(dimethylamino)azetidin-1-yl)-8-fluoro-7-(3-hydroxynaphthalen-1-yl)quinazolin-4-yl)azetidin-3-carboxamide bistrifluoroacetate], the IC50 worked out at 2.42 µM.

Regarding `CN(C)C1CN(c2nc(N3C[C@H]4CC[C@@H](C3)[C@@H]4N)c3cc(Cl)c(-c4cc(O)cc5ccccc45)c(F)c3n2)C1` (single isomer, unassigned) [Compound 30, (S or R)-4-(4-((1R,5S,8S)-8-amino-3-azabicyclo[3.2.1]octan-3-yl)-6-chloro-2-(3-(dimethylamino)azetidin-1-yl)-8-fluoroquinazolin-7-yl)naphthalen-2-ol], the IC50 was found to be 1.23 µM.

For `CN(C)C1CN(c2nc(NC3CC4CCCC(C3)N4)c3cc(Cl)c(-c4cc(O)cc5ccccc45)c(F)c3n2)C1` (single isomer, unassigned) [Compound 31, 4-((S or R)-4-(((1R,3R,5S)-9-azabicyclo[3.3.1]nonan-3-yl)amino)-6-chloro-2-(3-(dimethylamino)azetidin-1-yl)-8-fluoroquinazolin-7-yl)naphthalen-2-ol], the IC50 is roughly 69.7 µM.

For `CN(C)C1CN(c2nc(N[C@@H]3C[C@H]4CCC[C@@H](C3)N4)c3cc(Cl)c(-c4cc(O)cc5ccccc45)c(F)c3n2)C1` (single isomer, unassigned) [Compound 32, 4-((S or R)-4-(((1R,3S,5S)-9-azabicyclo[3.3.1]nonan-3-yl)amino)-6-chloro-2-(3-(dimethylamino)azetidin-1-yl)-8-fluoroquinazolin-7-yl)naphthalen-2-ol], the IC50 stood at 187 µM.

Regarding `CN1CCC[C@H]1COc1nc(N2CC3CCC(C2)N3)c2cc(Cl)c(-c3cc(O)cc4ccccc34)c(F)c2n1` (single isomer, unassigned) [Compound 39b, (R or S)-4-(4-((1R,5S)-3,8-diazabicyclo[3.2.1]octan-3-yl)-6-chloro-8-fluoro-2-((S)-1-methylpyrrolidin-2-yl)methoxy)quinazolin-7-yl)naphthalen-2-ol], the IC50 was 17.7 µM.

Turning to `CN(C)CCCOc1nc(N2CC3CCC(C2)N3)c2cc(Cl)c(-c3cc(O)cc4ccccc34)c(F)c2n1` (single isomer, unassigned) [Compound 40b, (R or S)-4-(4-((1R,5,S)-3,8-diazabicyclo[3.2.1]octan-3-yl)-6-chloro-2-(3-(dimethylamino)propoxy)-8-fluoroquinazolin-7-yl)naphthalen-2-ol], the IC50 came to 4.8 µM.

Turning to `CN(C)C1CN(c2nc(N3CC4CCC(C3)N4)c3cc(Cl)c(-c4cccc5ccccc45)c(F)c3n2)C1` (single isomer, unassigned) [Compound 42b, -((R or S)-4-((1R,5S)-3,8-diazabicyclo[3.2.1]octan-3-yl)-6-chloro-8-fluoro-7-(naphthalen-1-yl)quinazolin-2-yl)-N,N-dimethylazetidin-3-amine], the half-inhibitory concentration (IC50) was found to be 6.47 µM.

For the compound `CN(C)C1CN(c2nc(N3CC4CCC(C3)N4)c3cc(Cl)c(-c4c(O)cccc4F)c(F)c3n2)C1` (single isomer, unassigned) [Compound 43b, 2-((R or S)-4-((1R,5S)-3,8-diazabicyclo[3.2.1]octan-3-yl)-6-chloro-2-(3-(dimethylamino)azetidin-1-yl)-8-fluoroquinazolin-7-yl)-3-fluorophenol], the IC50 was 2.57 µM.

With `CN(C)C1CN(c2nc(N3CC4CCC(C3)N4)c3cc(Cl)c(-c4cc(O)cc5cccnc45)c(F)c3n2)C1` (single isomer, unassigned) [Compound 45a, 8-((S or R)-4-((1R,5S)-3,8-diazabicyclo[3.2.1]octan-3-yl)-6-chloro-2-(3-(dimethylamino)azetidin-1-yl)-8-fluoroquinazolin-7-yl)quinolin-6-o1], the half-maximal inhibitory concentration (IC50) turned out to be 1.26 µM.

On to `CCN(C)CCCOc1nc(N2CC3CCC(C2)N3)c2cc(Cl)c(-c3cc(O)cc4ccccc34)c(F)c2n1` (single isomer, unassigned) [Compound 49b, 4-((R or S)-4-((1R,5S)-3,8-diazabicyclo[3.2.1]octan-3-yl)-6-chloro-2-(3-(ethyl(methyl)amino)propoxy)-8-fluoroquinazolin-7-yl)naphthalen-2-ol dicarboxylate], for which the IC50 was determined as 13.8 µM.

Take `CCCN(C)CCCOc1nc(N2CC3CCC(C2)N3)c2cc(Cl)c(-c3cc(O)cc4ccccc34)c(F)c2n1` (single isomer, unassigned) [Compound 51b, 4-((R or S)-4-((1R,5S)-3,8-diazabicyclo[3.2.1]octan-3-yl)-6-chloro-8-fluoro-2-(3-(methyl(propyl)amino)propoxy)quinazolin-7-yl)naphthalen-2-ol]: the IC50 worked out at 50.8 µM.

Consider `CN1CCN(c2nc(N3CC4CCC(C3)N4)c3cc(Cl)c(-c4cc(O)cc5ccccc45)c(F)c3n2)CC1` (single isomer, unassigned) [Compound 52b, 4-((R or S)-4-((1R,5S)-3,8-diazabicyclo[3.2.1]octan-3-yl)-6-chloro-8-fluoro-2-(4-methylpiperazin-1-yl)quinazolin-7-yl)naphthalen-2-ol], for which the IC50 was 73.9 µM.

For `CCN(CC)CCCOc1nc(N2CC3CCC(C2)N3)c2cc(Cl)c(-c3cc(O)cc4ccccc34)c(F)c2n1` (single isomer, unassigned) [Compound 53b, 4-((R or S)-4-((1R,5,S)-3,8-diazabicyclo[3.2.1]octan-3-yl)-6-chloro-2-(3-(diethylamino)propoxy)-8-fluoroquinazolin-7-yl)naphthalen-2-ol], the IC50 was found to be 2.29 µM.

On to `Oc1cc(-c2c(Cl)cc3c(N4CC5CCC(C4)N5)nc(OCCCN4CCOCC4)nc3c2F)c2ccccc2c1` (single isomer, unassigned) [Compound 54b, 4-((R or S)-4-((1R,5S)-3,8-diazabicyclo[3.2.1]octan-3-yl)-6-chloro-8-fluoro-2-(3-morpholinopropoxy)quinazolin-7-yl)naphthalen-2-ol dihydrochloride], for which the half-inhibitory concentration (IC50) was 22.1 µM.

Take `CN1CCCC[C@H]1COc1nc(N2CC3CCC(C2)N3)c2cc(Cl)c(-c3cc(O)cc4ccccc34)c(F)c2n1` (single isomer, unassigned) [Compound 56b, 4-((R or S)-4-((1R,5S)-3,8-diazabicyclo[3.2.1]octan-3-yl)-6-chloro-8-fluoro-2-((S)-1-methylpiperidin-2-yl)methoxy)quinazolin-7-yl)naphthalen-2-ol dihydrochloride]: the IC50 was found to be 15.7 µM.

As to `Oc1cc(-c2c(Cl)cc3c(N4CC5CCC(C4)N5)nc(OCC45CCCN4CCC5)nc3c2F)c2ccccc2c1` (single isomer, unassigned) [Compound 58b, 4-((R or S)-4-((1R,5S)-3,8-diazabicyclo[3.2.1]octan-3-yl)-6-chloro-8-fluoro-2-((tetrahydro-1H-pyrrolin-7a(5H)-yl)methoxy)quinazolin-7-yl)naphthalen-2-ol], the IC50 came to 15.1 µM.

For `Oc1cc(-c2c(Cl)cc3c(N4CC5CCC(C4)N5)nc(OCCCN4CCC4)nc3c2F)c2ccccc2c1` (single isomer, unassigned) [Compound 59b, 4-((R or S)-2-(3-(azetidin-1-yl)propoxy)-4-((1R,5S)-3,8-diazabicyclo[3.2.1]octan-3-yl)-6-chloro-8-fluoroquinazolin-7-yl)naphthalen-2-ol], the half-maximal inhibitory concentration (IC50) amounted to 5.98 µM.

With `CN(C)CCCCOc1nc(N2CC3CCC(C2)N3)c2cc(Cl)c(-c3cc(O)cc4ccccc34)c(F)c2n1` (single isomer, unassigned) [Compound 60b, 4-((R or S)-4-((1R,5S)-3,8-diazabicyclo[3.2.1]octan-3-yl)-6-chloro-2-(4-(dimethylamino)butoxy)-8-fluoroquinazolin-7-yl)naphthalen-2-ol], the IC50 was found to be 72.4 µM.

For `Oc1cc(-c2c(Cl)cc3c(N4CC5CCC(C4)N5)nc(OCCCN4CCCC4)nc3c2F)c2ccccc2c1` (single isomer, unassigned) [Compound 63b, 4-((R or S)-4-((1R,5S)-3,8-diazabicyclo[3.2.1]octan-3-yl)-6-chloro-8-fluoro-2-(3-(pyrrolidin-1-yl)propoxy)quinazolin-7-yl)naphthalen-2-ol], the IC50 was found to be 12.9 µM.

Source of the values: US20230365563A1, “QUINAZOLINE COMPOUND AND APPLICATION THEREOF” (SHANGHAI PHARMACEUTICALS HOLDING CO., LTD., priority 2020, published 2023).
